Reference: PubChem BioAssay (NCI)
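Where inhibition never reached the appropriate level, the endpoint shown equals the highest concentration tested. Otherwise, values were interpolated linearly from a five-concentration, 48-hour dose response in 96-well plates. GI50 is the concentration that inhibits growth by half. TGI is the concentration that stops growth completely.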

Assays:
Test in all cases: NCI anticancer screen, dose series, 48 h
RPMI-8226 leukemia = test system: RPMI-8226 leukemia
HOP-92 NSCLC = test system: HOP-92 NSCLC
SK-OV-3 ovarian = test system: SK-OV-3 ovarian
ACHN renal = test system: ACHN renal
IGROV1 ovarian = test system: IGROV1 ovarian
MOLT-4 leukemia = test system: MOLT-4 leukemia
SN12C renal = test system: SN12C renal
A498 renal = test system: A498 renal
HOP-62 NSCLC = test system: HOP-62 NSCLC
COLO 205 colon = test system: COLO 205 colon
MDA-MB-231 breast = test system: MDA-MB-231 breast
A549 NSCLC = test system: A549 NSCLC
MCF7 breast = test system: MCF7 breast
M14 melanoma = test system: M14 melanoma
OVCAR-5 ovarian = test system: OVCAR-5 ovarian
HT29 colon = test system: HT29 colon
HCT-15 colon = test system: HCT-15 colon
MDA-MB-468 breast = test system: MDA-MB-468 breast
NCI-H460 lung = test system: NCI-H460 lung
OVCAR-8 ovarian = test system: OVCAR-8 ovarian
SR leukemia = test system: SR leukemia
CAKI-1 renal = test system: CAKI-1 renal
UACC-62 melanoma = test system: UACC-62 melanoma
SK-MEL-2 melanoma = test system: SK-MEL-2 melanoma
HCT-116 colon = test system: HCT-116 colon
SNB-19 CNS = test system: SNB-19 CNS
PC-3 prostate = test system: PC-3 prostate
MALME-3M melanoma = test system: MALME-3M melanoma
NCI-H23 lung = test system: NCI-H23 lung
T-47D breast = test system: T-47D breast
U251 CNS = test system: U251 CNS
SW-620 colon = test system: SW-620 colon
RXF 393 renal = test system: RXF 393 renal
HS 578T breast = test system: HS 578T breast
EKVX NSCLC = test system: EKVX NSCLC
KM12 colon = test system: KM12 colon
SNB-75 CNS = test system: SNB-75 CNS
DU-145 prostate = test system: DU-145 prostate
TK-10 renal = test system: TK-10 renal
UACC-257 melanoma = test system: UACC-257 melanoma
SF-295 CNS = test system: SF-295 CNS
LOX IMVI melanoma = test system: LOX IMVI melanoma
SK-MEL-28 melanoma = test system: SK-MEL-28 melanoma
SF-539 CNS = test system: SF-539 CNS
UO-31 renal = test system: UO-31 renal
SK-MEL-5 melanoma = test system: SK-MEL-5 melanoma
OVCAR-4 ovarian = test system: OVCAR-4 ovarian
BT-549 breast = test system: BT-549 breast
CCRF-CEM leukemia = test system: CCRF-CEM leukemia
SF-268 CNS = test system: SF-268 CNS
NCI-H226 lung = test system: NCI-H226 lung
MDA-MB-435 = test system: MDA-MB-435
OVCAR-3 ovarian = test system: OVCAR-3 ovarian
786-0 renal = test system: 786-0 renal
HCC-2998 colon = test system: HCC-2998 colon
NCI-H522 lung = test system: NCI-H522 lung
HL-60(TB) leukemia = test system: HL-60(TB) leukemia

With `CSc1ccccc1NC(=O)c1ccc2nn(/C(C#N)=C/c3ccccn3)nc2c1` the GI50 (RPMI-8226 leukemia) was 2.63 µM, the TGI (RPMI-8226 leukemia) was 8.32 µM and the GI50 (HOP-92 NSCLC) was 6.41 µM. The TGI (HOP-92 NSCLC) was 23.9 µM, the GI50 (SK-OV-3 ovarian) was 16 µM and the TGI (SK-OV-3 ovarian) was 30.1 µM. For the same compound, the GI50 (ACHN renal) was 2.1 µM, the TGI (ACHN renal) was 4.42 µM and the GI50 (IGROV1 ovarian) was 4.52 µM. The TGI (IGROV1 ovarian) was 15.9 µM, the GI50 (MOLT-4 leukemia) was 2.68 µM and the TGI (MOLT-4 leukemia) was 7.74 µM. It also gave a GI50 (SN12C renal) of 4.53 µM, a TGI (SN12C renal) of 16.1 µM and a GI50 (A498 renal) of 16 µM. The TGI (A498 renal) was 29.7 µM, the GI50 (HOP-62 NSCLC) was 13.1 µM and the TGI (HOP-62 NSCLC) was 27.2 µM. It also gave a GI50 (COLO 205 colon) of 1.96 µM, a TGI (COLO 205 colon) of 4.25 µM and a GI50 (MDA-MB-231 breast) of 2.91 µM. The TGI (MDA-MB-231 breast) was 8.48 µM, the GI50 (A549 NSCLC) was 12.2 µM and the TGI (A549 NSCLC) was 28.5 µM. For the same compound, the GI50 (MCF7 breast) was 3 µM, the TGI (MCF7 breast) was 13.1 µM and the GI50 (M14 melanoma) was 2.96 µM. For the same compound, the TGI (M14 melanoma) was 10.4 µM, the GI50 (OVCAR-5 ovarian) was 4.69 µM and the TGI (OVCAR-5 ovarian) was 17.5 µM. For the same compound, the GI50 (HT29 colon) was 3.09 µM, the TGI (HT29 colon) was 10.1 µM and the GI50 (HCT-15 colon) was 1.73 µM. It also gave a TGI (HCT-15 colon) of 3.53 µM, a GI50 (MDA-MB-468 breast) of 1.84 µM and a TGI (MDA-MB-468 breast) of 4.2 µM. It also gave a GI50 (NCI-H460 lung) of 3.16 µM, a TGI (NCI-H460 lung) of 11.6 µM and a GI50 (OVCAR-8 ovarian) of 3.14 µM. The TGI (OVCAR-8 ovarian) was 11.7 µM, the GI50 (SR leukemia) was 2.35 µM and the TGI (SR leukemia) was 7.96 µM. The GI50 (CAKI-1 renal) was 2.78 µM, the TGI (CAKI-1 renal) was 10.8 µM and the GI50 (UACC-62 melanoma) was 3.77 µM. The TGI (UACC-62 melanoma) was 14.6 µM, the GI50 (SK-MEL-2 melanoma) was 6.47 µM and the TGI (SK-MEL-2 melanoma) was 20 µM. It also gave a GI50 (HCT-116 colon) of 2.14 µM, a TGI (HCT-116 colon) of 4.72 µM and a GI50 (SNB-19 CNS) of 12.8 µM. For the same compound, the TGI (SNB-19 CNS) was 26.5 µM, the GI50 (PC-3 prostate) was 7.04 µM and the TGI (PC-3 prostate) was 23.7 µM. For the same compound, the GI50 (MALME-3M melanoma) was 2 µM, the TGI (MALME-3M melanoma) was 4.25 µM and the GI50 (NCI-H23 lung) was 5.13 µM. It also gave a TGI (NCI-H23 lung) of 18.2 µM, a GI50 (T-47D breast) of 3.5 µM and a TGI (T-47D breast) of 16.6 µM. It also gave a GI50 (U251 CNS) of 4.35 µM, a TGI (U251 CNS) of 15.7 µM and a GI50 (SW-620 colon) of 2.29 µM. The TGI (SW-620 colon) was 5.39 µM, the GI50 (RXF 393 renal) was 1.78 µM and the TGI (RXF 393 renal) was 4.16 µM. For the same compound, the GI50 (HS 578T breast) was 3.19 µM, the TGI (HS 578T breast) was 14.3 µM and the GI50 (EKVX NSCLC) was 9.18 µM. It also gave a TGI (EKVX NSCLC) of 21.6 µM, a GI50 (KM12 colon) of 7.64 µM and a TGI (KM12 colon) of 24.2 µM. The GI50 (SNB-75 CNS) was 5.8 µM, the TGI (SNB-75 CNS) was 20.6 µM and the GI50 (DU-145 prostate) was 4.38 µM. For the same compound, the TGI (DU-145 prostate) was 15 µM, the GI50 (TK-10 renal) was 4.26 µM and the TGI (TK-10 renal) was 15.9 µM. The GI50 (UACC-257 melanoma) was 2.57 µM, the TGI (UACC-257 melanoma) was 7.49 µM and the GI50 (SF-295 CNS) was 13.8 µM. It also gave a TGI (SF-295 CNS) of 27.3 µM, a GI50 (LOX IMVI melanoma) of 1.72 µM and a TGI (LOX IMVI melanoma) of 3.28 µM. It also gave a GI50 (SK-MEL-28 melanoma) of 2.06 µM, a TGI (SK-MEL-28 melanoma) of 4.57 µM and a GI50 (SF-539 CNS) of 2.8 µM. It also gave a TGI (SF-539 CNS) of 8.64 µM, a GI50 (UO-31 renal) of 2.01 µM and a TGI (UO-31 renal) of 4.74 µM. The GI50 (SK-MEL-5 melanoma) was 4.99 µM, the TGI (SK-MEL-5 melanoma) was 17.2 µM and the GI50 (OVCAR-4 ovarian) was 6.5 µM. It also gave a TGI (OVCAR-4 ovarian) of 19.5 µM, a GI50 (BT-549 breast) of 6.17 µM and a TGI (BT-549 breast) of 18.7 µM. For the same compound, the GI50 (CCRF-CEM leukemia) was 3.13 µM, the TGI (CCRF-CEM leukemia) was 30.7 µM and the GI50 (SF-268 CNS) was 10.3 µM. The TGI (SF-268 CNS) was 28.1 µM, the GI50 (NCI-H226 lung) was 13.5 µM and the TGI (NCI-H226 lung) was 28.5 µM. For the same compound, the GI50 (MDA-MB-435) was 2.67 µM, the TGI (MDA-MB-435) was 9.09 µM and the GI50 (OVCAR-3 ovarian) was 2.29 µM. The TGI (OVCAR-3 ovarian) was 5.95 µM, the GI50 (786-0 renal) was 3.68 µM and the TGI (786-0 renal) was 12.4 µM. The GI50 (HCC-2998 colon) was 4.08 µM, the TGI (HCC-2998 colon) was 14.6 µM and the GI50 (NCI-H522 lung) was 1.65 µM. The TGI (NCI-H522 lung) was 3.43 µM, the GI50 (HL-60(TB) leukemia) was 2.07 µM and the TGI (HL-60(TB) leukemia) was 6.58 µM.
